Results taken from patent US20070112056A1, “Stable modifications of tegaserod hydrogen maleate” (priority 2003, published 2007).

What was measured:
Type in all cases: physicochemical
[1] = Stability of the crystal form when exposed to heat (DSC thermogram)
Experimental: Characteristic for the modification A is the thermogram in differential scanning calorimetry (DSC). It has an endothermic melting peak at about 190° C. The melting enthalpy of the endothermic signal Is 130 J/g±5 J/g. The measurement Is carried out on a Perkin Elmer DSC 7 in a crimped pan with a heating rate of 10 K/minute., The typical sample quantity is about 2 mg. As a typical distinguishing feature compared with the modification B and the acetone solvate, ethanol solvate, the thermogram of the modification A has no further thermal signal (see Table 1a below):
It has an endothermic peak in addition to the one at about 190° C., at 97° C. and melting/crystallization signals at about 181° C. […] The measurement is done as described above.

[2] = Stability of the crystal form in the presence of water
[3] = Conversion between crystal forms / thermodynamic stability
Solubility = test: Solubility
[4] = compared to modification B and the ethanol, acetone solvate

CCCCCNC(=N)N/N=C/c1c[nH]c2ccc(OC)cc12.O=C(O)/C=C\C(=O)O [modification A, modification A of the hydrogen maleate salt of 3-(5-methoxy-1H-indol-3-yl-methylene)-N-pentylcarbazimidamide]
stability when exposed to heat [1, 4]: more stable when exposed to heat
stability in the presence of water [2, 4]: more stable In the presence of water
thermodynamic stability ([3]; relative to modification B): thermodynamically more stable than modification B

CCCCCNC(=N)N/N=C/c1c[nH]c2ccc(OC)cc12.O=C(O)/C=C\C(=O)O [solvate with acetone]
conversion of crystal form by equilibration with water ([2]; equilibration with water): can be transformed into modification A

CCCCCNC(=N)N/N=C/c1c[nH]c2ccc(OC)cc12.O=C(O)/C=C\C(=O)O [modification B]
conversion of crystal form when heating is applied ([1]; DSC, heating rate 10 K/minute): converts into modification A
conversion of crystal form ([3]; under certain conditions, e.g. heat or water containing organic solvents): completely or partly be converted into modification A

CCCCCNC(=N)N/N=C/c1c[nH]c2ccc(OC)cc12.O=C(O)/C=C\C(=O)O [tegaserod hydrogen maleate, 3-(5-methox-1H-indol-3-yl-methylene)-N-pentylcarbazimidamide hydrogen maleate]
solubility (Solubility): poor
